# Measured values as given in PMC2866172 (Journal of medicinal chemistry, 2010).
# How the values were obtained:
# [1] = Brain PET imaging in anesthetized baboons; settings: for Estimated concentration in whole brain, C30min / Concentration in whole brain, C30min: 30 min; for Estimated concentration in whole brain, C30min / Estimated concentration in whole brain, C60min / Estimated concentration in whole brain, C90min: estimated from baboon weight, signal assumed intact drug; for Estimated concentration in whole brain, C60min / Concentration in whole brain, C60min: 60 min; for Estimated concentration in whole brain, C90min / Concentration in whole brain, C90min: 90 min; for Concentration in whole brain, C30min / Concentration in whole brain, C60min / Concentration in whole brain, C90min: baboon
# [2] = Torso PET imaging in anesthetized baboons; settings: for Calculated drug concentration in heart / Calculated drug concentration in kidney cortex / Calculated drug concentration in kidney medulla / Calculated drug concentration in liver / Calculated drug concentration in lung / Calculated drug concentration in plasma: 17 kg baboon; for Concentration in heart / Concentration in kidney cortex / Concentration in kidney medulla / Concentration in liver / Concentration in lung / Concentration in plasma: baboon, i.v.
# [3] = 15 min, calculated assuming 5 mg/kg dose
# [4] = 30 min, calculated assuming 5 mg/kg dose
# [5] = 60 min, calculated assuming 5 mg/kg dose
# [6] = 90 min, calculated assuming 5 mg/kg dose
# [7] = 15 min, calculated assuming 20 mg/kg dose
# [8] = 30 min, calculated assuming 20 mg/kg dose
# [9] = 60 min, calculated assuming 20 mg/kg dose
# [10] = 90 min, calculated assuming 20 mg/kg dose
smiles,measurement,setting,value
NN[11C](=O)c1ccncc1 [[^11C]INH],"Estimated concentration in whole brain, C30min",[1]; 5 mg/kg dose,2.54 µg/mL
same,"Estimated concentration in whole brain, C60min",[1]; 5 mg/kg dose,2.11 µg/mL
same,"Estimated concentration in whole brain, C90min",[1]; 5 mg/kg dose,1.75 µg/mL
same,"Concentration in whole brain, C30min",[1]; i.v.,0.00299 %ID/cc
same,"Concentration in whole brain, C60min",[1]; i.v.,0.00248 %ID/cc
same,"Concentration in whole brain, C90min",[1]; i.v.,0.00206 %ID/cc
same,Blood-brain barrier penetration,"[1]; healthy baboons, i.v., TAC, AUC and image",higher initial brain penetration and tissue accumulation when compared to RIF
same,Calculated drug concentration in heart,[2]; [3],(8.72) µg/ml
same,Calculated drug concentration in kidney cortex,[2]; [3],(15.06) µg/ml
same,Calculated drug concentration in kidney medulla,[2]; [3],(18.94) µg/ml
same,Calculated drug concentration in liver,[2]; [3],(12.50) µg/ml
same,Calculated drug concentration in lung,[2]; [3],(7.72) µg/ml
same,Calculated drug concentration in plasma,[2]; [3],(3.76) µg/ml
same,Calculated drug concentration in heart,[2]; [4],(6.13) µg/ml
same,Calculated drug concentration in kidney cortex,[2]; [4],(9.26) µg/ml
same,Calculated drug concentration in kidney medulla,[2]; [4],(15.43) µg/ml
same,Calculated drug concentration in liver,[2]; [4],(9.71) µg/ml
same,Calculated drug concentration in lung,[2]; [4],(6.09) µg/ml
same,Calculated drug concentration in plasma,[2]; [4],(2.96) µg/ml
same,Calculated drug concentration in heart,[2]; [5],(3.74) µg/ml
same,Calculated drug concentration in kidney cortex,[2]; [5],(7.72) µg/ml
same,Calculated drug concentration in kidney medulla,[2]; [5],(16.37) µg/ml
same,Calculated drug concentration in liver,[2]; [5],(7.64) µg/ml
same,Calculated drug concentration in lung,[2]; [5],(4.42) µg/ml
same,Calculated drug concentration in plasma,[2]; [5],(2.05) µg/ml
same,Calculated drug concentration in heart,[2]; [6],(4.15) µg/ml
same,Calculated drug concentration in kidney cortex,[2]; [6],(8.54) µg/ml
same,Calculated drug concentration in kidney medulla,[2]; [6],(14.69) µg/ml
same,Calculated drug concentration in liver,[2]; [6],(6.91) µg/ml
same,Calculated drug concentration in lung,[2]; [6],(4.19) µg/ml
same,Calculated drug concentration in plasma,[2]; [6],(1.62) µg/ml
same,Concentration in heart,[2]; 15 min after administration,0.0103 %ID/cc
same,Concentration in kidney cortex,[2]; 15 min after administration,0.0177 %ID/cc
same,Concentration in kidney medulla,[2]; 15 min after administration,0.0223 %ID/cc
same,Concentration in liver,[2]; 15 min after administration,0.0147 %ID/cc
same,Concentration in lung,[2]; 15 min after administration,0.0091 %ID/cc
same,Concentration in plasma,[2]; 15 min after administration,0.00442 %ID/cc
same,Concentration in heart,[2]; 30 min after administration,0.0072 %ID/cc
same,Concentration in kidney cortex,[2]; 30 min after administration,0.0109 %ID/cc
same,Concentration in kidney medulla,[2]; 30 min after administration,0.0181 %ID/cc
same,Concentration in liver,[2]; 30 min after administration,0.0114 %ID/cc
same,Concentration in lung,[2]; 30 min after administration,0.0072 %ID/cc
same,Concentration in plasma,[2]; 30 min after administration,0.00348 %ID/cc
same,Concentration in heart,[2]; 60 min after administration,0.0044 %ID/cc
same,Concentration in kidney cortex,[2]; 60 min after administration,0.0091 %ID/cc
same,Concentration in kidney medulla,[2]; 60 min after administration,0.0193 %ID/cc
same,Concentration in liver,[2]; 60 min after administration,0.0090 %ID/cc
same,Concentration in lung,[2]; 60 min after administration,0.0052 %ID/cc
same,Concentration in plasma,[2]; 60 min after administration,0.00241 %ID/cc
same,Concentration in heart,[2]; 90 min after administration,0.0049 %ID/cc
same,Concentration in kidney cortex,[2]; 90 min after administration,0.0100 %ID/cc
same,Concentration in kidney medulla,[2]; 90 min after administration,0.0173 %ID/cc
same,Concentration in liver,[2]; 90 min after administration,0.0081 %ID/cc
same,Concentration in lung,[2]; 90 min after administration,0.0049 %ID/cc
same,Concentration in plasma,[2]; 90 min after administration,0.0019 %ID/cc
N[11C](=O)c1cnccn1 [[^11C]PZA],"Estimated concentration in whole brain, C30min",[1]; 20 mg/kg dose,21.05 µg/mL
same,"Estimated concentration in whole brain, C60min",[1]; 20 mg/kg dose,15.74 µg/mL
same,"Estimated concentration in whole brain, C90min",[1]; 20 mg/kg dose,13.70 µg/mL
same,"Concentration in whole brain, C30min",[1]; i.v.,0.00619 %ID/cc
same,"Concentration in whole brain, C60min",[1]; i.v.,0.00463 %ID/cc
same,"Concentration in whole brain, C90min",[1]; i.v.,0.00403 %ID/cc
same,Calculated drug concentration in heart,[2]; [7],(67.76) µg/ml
same,Calculated drug concentration in kidney cortex,[2]; [7],(20.52) µg/ml
same,Calculated drug concentration in kidney medulla,[2]; [7],(617.02) µg/ml
same,Calculated drug concentration in liver,[2]; [7],(36.14) µg/ml
same,Calculated drug concentration in lung,[2]; [7],(35.03) µg/ml
same,Calculated drug concentration in plasma,[2]; [7],(22.03) µg/ml
same,Calculated drug concentration in heart,[2]; [8],(61.50) µg/ml
same,Calculated drug concentration in kidney cortex,[2]; [8],(16.59) µg/ml
same,Calculated drug concentration in kidney medulla,[2]; [8],(474.39) µg/ml
same,Calculated drug concentration in liver,[2]; [8],(26.96) µg/ml
same,Calculated drug concentration in lung,[2]; [8],(26.48) µg/ml
same,Calculated drug concentration in plasma,[2]; [8],(14.59) µg/ml
same,Calculated drug concentration in heart,[2]; [9],(57.59) µg/ml
same,Calculated drug concentration in kidney cortex,[2]; [9],(12.55) µg/ml
same,Calculated drug concentration in kidney medulla,[2]; [9],(343.00) µg/ml
same,Calculated drug concentration in liver,[2]; [9],(21.98) µg/ml
same,Calculated drug concentration in lung,[2]; [9],(22.17) µg/ml
same,Calculated drug concentration in plasma,[2]; [9],(11.25) µg/ml
same,Calculated drug concentration in heart,[2]; [10],(59.49) µg/ml
same,Calculated drug concentration in kidney cortex,[2]; [10],(9.93) µg/ml
same,Calculated drug concentration in kidney medulla,[2]; [10],(229.44) µg/ml
same,Calculated drug concentration in liver,[2]; [10],(19.19) µg/ml
same,Calculated drug concentration in lung,[2]; [10],(18.58) µg/ml
same,Calculated drug concentration in plasma,[2]; [10],(9.04) µg/ml
same,Concentration in heart,[2]; 15 min after administration,0.0199 %ID/cc
same,Concentration in kidney cortex,[2]; 15 min after administration,0.0060 %ID/cc
same,Concentration in kidney medulla,[2]; 15 min after administration,0.1815 %ID/cc
same,Concentration in liver,[2]; 15 min after administration,0.0106 %ID/cc
same,Concentration in lung,[2]; 15 min after administration,0.0103 %ID/cc
same,Concentration in plasma,[2]; 15 min after administration,0.00648 %ID/cc
same,Concentration in heart,[2]; 30 min after administration,0.0181 %ID/cc
same,Concentration in kidney cortex,[2]; 30 min after administration,0.0049 %ID/cc
same,Concentration in kidney medulla,[2]; 30 min after administration,0.1395 %ID/cc
same,Concentration in liver,[2]; 30 min after administration,0.0079 %ID/cc
same,Concentration in lung,[2]; 30 min after administration,0.0078 %ID/cc
same,Concentration in plasma,[2]; 30 min after administration,0.00429 %ID/cc
same,Concentration in heart,[2]; 60 min after administration,0.0169 %ID/cc
same,Concentration in kidney cortex,[2]; 60 min after administration,0.0037 %ID/cc
same,Concentration in kidney medulla,[2]; 60 min after administration,0.1009 %ID/cc
same,Concentration in liver,[2]; 60 min after administration,0.0065 %ID/cc
same,Concentration in lung,[2]; 60 min after administration,0.0065 %ID/cc
same,Concentration in plasma,[2]; 60 min after administration,0.00331 %ID/cc
same,Concentration in heart,[2]; 90 min after administration,0.0175 %ID/cc
same,Concentration in kidney cortex,[2]; 90 min after administration,0.0029 %ID/cc
same,Concentration in kidney medulla,[2]; 90 min after administration,0.0675 %ID/cc
same,Concentration in liver,[2]; 90 min after administration,0.0056 %ID/cc
same,Concentration in lung,[2]; 90 min after administration,0.0055 %ID/cc
same,Concentration in plasma,[2]; 90 min after administration,0.00266 %ID/cc
